The record followed here is patent publication US12415803B2, “Fused imidazopyridines as reversible inhibitors of Brutons Tyrosine Kinase (BTK)” (Merck Patent GmbH, priority 2018, dated 2025).

A value given as a limit tells only on which side of the number the result lay.

Test [1] addresses full-length human BTK (Homo sapiens (Human), UniProt Q06187). Kind of test: BTK IC50 Enzyme Assay (microfluidic off-chip mobility shift kinase assay).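 Further: Read-out separates phosphorylated peptide product from substrate by their charge-to-mass difference, with IC50 fitted from log inhibitor concentration against percent enzyme activity.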 The format is biochemical. The settings on record: Btk Enzymatic IC50 Assay, 90 min at 27 C.
The target of test [2] is Btk (Homo sapiens (Human), UniProt Q06187). Kind of test: Btk PBMC IC50 Cell Assay (anti-IgM-induced CD69 expression on B cells).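 Further: freshly isolated human PBMCs, IC50 from concentration-response of the share of CD19+ cells expressing CD69 after anti-IgM BCR stimulation.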 The test is classed as cell-based. The settings on record: anti-IgM-induced CD69 expression on CD19 positive cells in human PBMCs.
Btk, sequence (Q06187 whole entry): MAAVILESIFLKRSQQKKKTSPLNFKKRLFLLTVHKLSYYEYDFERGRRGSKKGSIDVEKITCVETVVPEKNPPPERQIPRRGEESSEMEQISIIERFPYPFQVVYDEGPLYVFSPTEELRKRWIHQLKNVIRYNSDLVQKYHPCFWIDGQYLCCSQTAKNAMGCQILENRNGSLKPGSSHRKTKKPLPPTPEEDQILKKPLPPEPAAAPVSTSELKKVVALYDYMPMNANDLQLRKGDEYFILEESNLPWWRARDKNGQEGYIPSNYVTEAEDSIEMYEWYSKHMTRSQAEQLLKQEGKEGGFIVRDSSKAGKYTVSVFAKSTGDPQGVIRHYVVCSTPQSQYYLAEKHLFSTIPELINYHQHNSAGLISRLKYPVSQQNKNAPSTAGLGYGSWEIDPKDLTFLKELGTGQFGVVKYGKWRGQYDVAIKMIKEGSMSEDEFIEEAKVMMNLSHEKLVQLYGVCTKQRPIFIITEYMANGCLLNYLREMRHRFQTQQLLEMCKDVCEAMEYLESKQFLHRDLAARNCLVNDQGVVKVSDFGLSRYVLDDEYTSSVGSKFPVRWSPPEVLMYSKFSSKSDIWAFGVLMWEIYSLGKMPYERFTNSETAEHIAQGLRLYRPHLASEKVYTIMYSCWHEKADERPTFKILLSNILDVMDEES

full-length human BTK, sequence (Q06187 whole entry): as above

In the case of `Cc1nn(C)cc1-c1nc2c(-c3ccc4c(c3)CCCC4NC(=O)c3nc(C(C)(C)C)no3)ccnc2[nH]1` (stereo not drawn) [Compound 67, 3-tert-Butyl-[1,2,4]oxadiazole-5-carboxylic acid {6-[2-(1,3-dimethyl-1H-pyrazol-4-yl)-3H-imidazo[4,5-b]pyridin-7-yl]-1,2,3,4-tetrahydro-naphthalen-1-yl}-amide], the IC50 in test [1] is less than 1 nM; in test [2], 10 to 100 nM.

`Cc1c(-c2nc3c(-c4ccc5c(c4)CCC[C@H]5NC(=O)c4nc(C5(C)CC5)no4)ccnc3[nH]2)cnn1C1CCOCC1` [Compound 154, 3-(1-Methyl-cyclopropyl)-[1,2,4]oxadiazole-5-carboxylic acid ((R)-6-{2-[5-methyl-1-(tetrahydro-pyran-4-yl)-1H-pyrazol-4-yl]-3H-imidazo[4,5-b]pyridin-7-yl}-1,2,3,4-tetrahydro-naphthalen-1-yl)-amide]: the IC50 fell in the range of 1 to 10 nM in test [1] and 10 to 100 nM in test [2].

In the case of `Cc1nn(C(C)C)c(C)c1-c1nc2c(-c3ccc4c(c3)CCCC[C@@H]4NC(=O)c3nnc(C(C)(C)C)o3)ccnc2[nH]1` [Compound 88, 5-tert-butyl-N-[(5S)-2-{2-[3,5-dimethyl-1-(propan-2-yl)-1H-pyrazol-4-yl]-3H-imidazo[4,5-b]pyridin-7-yl}-6,7,8,9-tetrahydro-5H-benzo[7]annulen-5-yl]-1,3,4-oxadiazole-2-carboxamide], the IC50 is 1 to 10 nM in test [1] and more than 100 nM in test [2].

For the compound `Cc1nn(C)c(C)c1-c1nc2c(-c3ccc4c(c3)OCCC[C@@H]4NC(=O)c3noc(C(C)(C)C)n3)ccnc2[nH]1` [Compound 16, 5-tert-Butyl-[1,2,4]oxadiazole-3-carboxylic acid {(S)-8-[2-(1,3,5-trimethyl-1H-pyrazol-4-yl)-3H-imidazo[4,5-b]pyridin-7-yl]-2,3,4,5-tetrahydro-benzo[b]oxepin-5-yl}-amide], the values for the IC50 in test [1] and in test [2] were less than 1 nM and 1 to 10 nM, respectively.

Turning to `Cc1nn(C(C)C)c(C)c1-c1nc2c(-c3ccc4c(c3)CCCCC4NC(=O)c3nc(C4(C)CC4)no3)ccnc2[nH]1` (stereo not drawn) [Compound 35, 3-(1-Methyl-cyclopropyl)-[1,2,4]oxadiazole-5-carboxylic acid {2-[2-(1-isopropyl-3,5-dimethyl-1H-pyrazol-4-yl)-3H-imidazo[4,5-b]pyridin-7-yl]-6,7,8,9-tetrahydro-5H-benzocyclohepten-5-yl}-amide], the values for the IC50 in test [1] and in test [2] were less than 1 nM and 1 to 10 nM, respectively.

With `Cn1cc(-c2nc3c(-c4ccc5c(c4)OCCCC5NC(=O)c4noc(C(C)(C)C)n4)ccnc3[nH]2)cn1` (stereo not drawn) [Compound 37, 5-tert-Butyl-[1,2,4]oxadiazole-3-carboxylic acid {8-[2-(1-methyl-1H-pyrazol-4-yl)-3H-imidazo[4,5-b]pyridin-7-yl]-2,3,4,5-tetrahydro-benzo[b]oxepin-5-yl}-amide], the IC50 in test [1] was less than 1 nM; in test [2], 1 to 10 nM.

Take `Cn1cc(-c2nc3c(-c4ccc5c(c4)CCCC[C@@H]5NC(=O)c4cc(C5(C)CC5)on4)ccnc3[nH]2)cn1` [Compound 57, 5-(1-Methyl-cyclopropyl)-isoxazole-3-carboxylic acid {(S)-2-[2-(1-methyl-1H-pyrazol-4-yl)-3H-imidazo[4,5-b]pyridin-7-yl]-6,7,8,9-tetrahydro-5H-benzocyclohepten-5-yl}-amide]: the IC50 in test [1] is 1 to 10 nM; in test [2] it was more than 100 nM.

Regarding `Cn1cc(-c2nc3c(-c4ccc5c(c4)CCCC[C@@H]5NC(=O)c4noc(C5(C)CC5)n4)ccnc3[nH]2)cn1` [Compound 55, 5-(1-Methyl-cyclopropyl)-[1,2,4]oxadiazole-3-carboxylic acid {(S)-2-[2-(1-methyl-1H-pyrazol-4-yl)-3H-imidazo[4,5-b]pyridin-7-yl]-6,7,8,9-tetrahydro-5H-benzocyclohepten-5-yl}-amide], the IC50 in test [1] was 1 to 10 nM; in test [2], 10 to 100 nM.

As for `Cc1nn(C(C)C)c(C)c1-c1nc2c(-c3ccc4c(c3)CCCC[C@H]4NC(=O)c3nnc(C(C)(C)C)o3)ccnc2[nH]1` [Compound 87, 5-tert-butyl-N-[(5R)-2-{2-[3,5-dimethyl-1-(propan-2-yl)-1H-pyrazol-4-yl]-3H-imidazo[4,5-b]pyridin-7-yl}-6,7,8,9-tetrahydro-5H-benzo[7]annulen-5-yl]-1,3,4-oxadiazole-2-carboxamide], the figures for the IC50 in test [1] and in test [2] were less than 1 nM and 1 to 10 nM, respectively.

On to `Cc1c(-c2nc3c(-c4ccc5c(c4)CCCC[C@@H]5NC(=O)c4noc(C(C)(C)C)n4)ccnc3[nH]2)cnn1C(C)C` [Compound 22, 5-tert-Butyl-[1,2,4]oxadiazole-3-carboxylic acid {(S)-2-[2-(1-isopropyl-5-methyl-1H-pyrazol-4-yl)-3H-imidazo[4,5-b]pyridin-7-yl]-6,7,8,9-tetrahydro-5H-benzocyclohepten-5-yl}-amide], for which the values for the IC50 in test [1] and in test [2] were 1 to 10 nM and 10 to 100 nM, respectively.

For `Cc1cc(-c2nc3c(-c4ccc5c(c4)CCCCC5NC(=O)c4nc(C5(C)CC5)no4)ccnc3[nH]2)nn1C(C)C` (stereo not drawn) [Compound 117, 3-(1-Methyl-cyclopropyl)-[1,2,4]oxadiazole-5-carboxylic acid {2-[2-(1-isopropyl-5-methyl-1H-pyrazol-3-yl)-3H-imidazo[4,5-b]pyridin-7-yl]-6,7,8,9-tetrahydro-5H-benzocyclohepten-5-yl}-amide], the values for the IC50 in test [1] and in test [2] were less than 1 nM and 1 to 10 nM, respectively.

`Cc1c(-c2nc3c(-c4ccc5c(c4)CCC[C@@H]5NC(=O)c4noc(C5(C)CC5)n4)ccnc3[nH]2)cnn1C1CCOCC1` [Compound 163, 5-(1-Methyl-cyclopropyl)-[1,2,4]oxadiazole-3-carboxylic acid ((S)-6-{2-[5-methyl-1-(tetrahydro-pyran-4-yl)-1H-pyrazol-4-yl]-3H-imidazo[4,5-b]pyridin-7-yl}-1,2,3,4-tetrahydro-naphthalen-1-yl)-amide]: the IC50 in test [1] is less than 1 nM; in test [2] it was 1 to 10 nM.

Turning to `Cc1cc(-c2nc3c(-c4ccc5c(c4)CCCC5NC(=O)c4nc(C(C)(C)C)no4)ccnc3[nH]2)nn1C(C)C` (stereo not drawn) [Compound 112, 3-tert-Butyl-[1,2,4]oxadiazole-5-carboxylic acid {6-[2-(1-isopropyl-5-methyl-1H-pyrazol-3-yl)-3H-imidazo[4,5-b]pyridin-7-yl]-1,2,3,4-tetrahydro-naphthalen-1-yl}-amide], the results for the half-maximal inhibitory concentration (IC50) in test [1] and in test [2] were 1 to 10 nM and 10 to 100 nM, respectively.

With `Cc1nn(C)c(C)c1-c1nc2nccc(-c3ccc4c(c3)CCCC[C@@H]4NC(=O)c3cc(C(C)(C)C)on3)c2[nH]1` [Compound 71, 5-tert-butyl-N-[(5S)-2-[2-(1,3,5-trimethyl-1H-pyrazol-4-yl)-1H-imidazo[4,5-b]pyridin-7-yl]-6,7,8,9-tetrahydro-5H-benzo[7]annulen-5-yl]-1,2-oxazole-3-carboxamide], the IC50 in test [1] is 1 to 10 nM; in test [2], 10 to 100 nM.

Regarding `Cc1cc(-c2nc3c(-c4ccc5c(c4)CCCCC5NC(=O)c4nc(C(C)(C)C)no4)ccnc3[nH]2)nn1C` (stereo not drawn) [Compound 110, 3-tert-Butyl-[1,2,4]oxadiazole-5-carboxylic acid {2-[2-(1,5-dimethyl-1H-pyrazol-3-yl)-3H-imidazo[4,5-b]pyridin-7-yl]-6,7,8,9-tetrahydro-5H-benzocyclohepten-5-yl}-amide], the IC50 in test [1] was less than 1 nM; in test [2] it was 1 to 10 nM.
